{
  "source": "patent US4476122A",
  "about": "“Alkyloximes of 7-amino-thiazolyl-acetamido-cephalosporanic acids” (Roussel Uclaf, priority 1976, dated 1984)",
  "assay_in_all_cases": "MIC, liquid medium dilution",
  "assay_type_in_all_cases": "cell-based",
  "key": {"[1]": {"test_system": "Bacillus subtilis ATCC 6 633", "protocol": "(§1) The method used was a dilution of a liquid medium where a series of tubes received the same quantity of a sterile nutritive media and increasing doses of the test compounds were placed therein. Then each tube was seeded with a bacterial strain and was incubated for 24 or 48 hours at 37° C. in an oven. The increasing inhibition was determined by transillumination to determine the minimum inhibiting concentration (MIC in μg/ml) and the results are reported in the following Tables."}, "Enterobacter cloacae 681": {"test_system": "Enterobacter cloacae 681", "details": "read-out: MIC", "protocol": "as §1"}, "[2]": {"test_system": "Escherichia Coli Exp. TO26 B6", "protocol": "as §1"}, "[3]": {"test_system": "Escherichia Coli Resistant Gentamicine, Tobramycine R 55 123 D", "protocol": "as §1"}, "[4]": {"test_system": "Escherichia Coli Resistant Tetracycline ATCC 11 303", "protocol": "as §1"}, "[5]": {"test_system": "Escherichia Coli Sensitive Tetracycline ATCC 9 637", "protocol": "as §1"}, "[6]": {"test_system": "Klebsiella pneumoniae 2 536 Resistant Gentamicine", "protocol": "as §1"}, "[7]": {"test_system": "Klebsiella pneumoniae Exp. 52 145", "protocol": "as §1"}, "[8]": {"test_system": "Proteus mirabilis (indol-) A 235", "protocol": "as §1"}, "Providencia Du 48": {"test_system": "Providencia Du 48", "details": "read-out: MIC", "protocol": "as §1"}, "[9]": {"test_system": "Salmonella typhimurium 420", "details": "Salmonella enterica", "protocol": "as §1"}, "[10]": {"test_system": "Serratia Resistant Gentamicine 2 532", "protocol": "as §1"}, "[11]": {"test_system": "Staphylococcus aureus ATCC 6 538 Pen-Sensitive", "protocol": "as §1"}, "[12]": {"test_system": "Staphylococcus aureus UC 1 128 Pen-Resistant", "details": "read-out: MIC", "protocol": "as §1"}, "[13]": {"test_system": "Staphylococcus aureus exp. n° 54 146", "details": "read-out: MIC", "protocol": "as §1"}, "[14]": {"test_system": "Streptococcus faecalis 5 432", "protocol": "as §1"}, "[15]": {"test_system": "Streptococcus faecalis 99 F 74", "details": "Enterococcus faecalis, read-out: MIC", "protocol": "as §1"}, "[16]": {"test_system": "Streptococcus pyogenes A 561", "details": "read-out: MIC", "protocol": "as §1"}},
  "note": "Read-outs that look alike come from different tables or passages of the source.",
  "data": [
    {"smiles": "CO/N=C(\\C(=O)NC1C(=O)N2C(C(=O)O)=C(CSc3nnc(C)s3)CS[C@H]12)c1csc(N)n1", "note": "(stereo partly drawn) [Example 2, 7-[{2-(2-amino-4-thiazolyl)-2-methoxyiminoacetyl}amino]-3-[(2-methyl-1,3,4-thiadiazol-5-yl)-thiomethyl]-ceph-3-eme-4-carboxylic acid]", "values": [
      {"measurement": "MIC", "setting": "[1]; ATCC6, 24 h, read-out: MIC", "result": 0.6, "unit": "µg/mL"},
      {"measurement": "MIC", "setting": "[1]; ATCC6, 48 h", "result": 1, "unit": "µg/mL"},
      {"measurement": "MIC", "setting": "Enterobacter cloacae 681; Enterobacter cloacae, 681, 24 h", "result": 40, "unit": "µg/mL"},
      {"measurement": "MIC", "setting": "Enterobacter cloacae 681; Enterobacter cloacae, 681, 48 h", "result": 40, "unit": "µg/mL"},
      {"measurement": "MIC", "setting": "[2]; 24 h", "result": 0.4, "unit": "µg/mL"},
      {"measurement": "MIC", "setting": "[2]; 48 h", "result": 0.4, "unit": "µg/mL"},
      {"measurement": "MIC", "setting": "[3]; 24 h", "result": 0.4, "unit": "µg/mL"},
      {"measurement": "MIC", "setting": "[3]; 48 h", "result": 0.4, "unit": "µg/mL"},
      {"measurement": "MIC", "setting": "[4]; ATCC11, 24 h, read-out: MIC", "result": 0.1, "unit": "µg/mL"},
      {"measurement": "MIC", "setting": "[4]; ATCC11, 48 h", "result": 0.2, "unit": "µg/mL"},
      {"measurement": "MIC", "setting": "[5]; ATCC9, 24 h, read-out: MIC", "result": 0.6, "unit": "µg/mL"},
      {"measurement": "MIC", "setting": "[5]; ATCC9, 48 h", "result": 0.6, "unit": "µg/mL"},
      {"measurement": "MIC", "setting": "[6]; 24 h, read-out: MIC", "result": 0.6, "unit": "µg/mL"},
      {"measurement": "MIC", "setting": "[6]; 48 h", "result": 1, "unit": "µg/mL"},
      {"measurement": "MIC", "setting": "[7]; EXP.52145, 24 h", "result": 0.05, "unit": "µg/mL"},
      {"measurement": "MIC", "setting": "[7]; EXP.52145, 48 h, read-out: MIC", "result": 0.1, "unit": "µg/mL"},
      {"measurement": "MIC", "setting": "[8]; 24 h", "result": 0.2, "unit": "µg/mL"},
      {"measurement": "MIC", "setting": "[8]; 48 h", "result": 0.2, "unit": "µg/mL"},
      {"measurement": "MIC", "setting": "Providencia Du 48; DU48, 24 h", "result": 2, "unit": "µg/mL"},
      {"measurement": "MIC", "setting": "Providencia Du 48; DU48, 48 h", "result": 5, "unit": "µg/mL"},
      {"measurement": "MIC", "setting": "[9]; 24 h, read-out: MIC", "result": 0.6, "unit": "µg/mL"},
      {"measurement": "MIC", "setting": "[9]; 48 h", "result": 0.6, "unit": "µg/mL"},
      {"measurement": "MIC", "setting": "[10]; 24 h", "result": 1, "unit": "µg/mL"},
      {"measurement": "MIC", "setting": "[10]; 48 h", "result": 1, "unit": "µg/mL"},
      {"measurement": "MIC", "setting": "[11]; ATCC6, 24 h", "result": 1, "unit": "µg/mL"},
      {"measurement": "MIC", "setting": "[11]; ATCC6, 48 h", "result": 1, "unit": "µg/mL"},
      {"measurement": "MIC", "setting": "[12]; UC1, 24 h", "result": 2, "unit": "µg/mL"},
      {"measurement": "MIC", "setting": "[12]; UC1, 48 h", "result": 2, "unit": "µg/mL"},
      {"measurement": "MIC", "setting": "[13]; 24 h", "result": 2, "unit": "µg/mL"},
      {"measurement": "MIC", "setting": "[13]; 48 h", "result": 2, "unit": "µg/mL"},
      {"measurement": "MIC", "setting": "[14]; Enterococcus faecalis, 5432, 24 h", "result": 1, "unit": "µg/mL"},
      {"measurement": "MIC", "setting": "[14]; Enterococcus faecalis, 5432, 48 h, read-out: MIC", "result": 2, "unit": "µg/mL"},
      {"measurement": "MIC", "setting": "[15]; 99F74, 24 h", "result": 2, "unit": "µg/mL"},
      {"measurement": "MIC", "setting": "[15]; 99F74, 48 h", "result": 5, "unit": "µg/mL"},
      {"measurement": "MIC", "setting": "[16]; A561, 24 h", "result": "≤ 0.02", "unit": "µg/mL"},
      {"measurement": "MIC", "setting": "[16]; A561, 48 h", "result": "≤ 0.02", "unit": "µg/mL"}
    ]}
  ]
}
